Measurements taken from publication PMC5641094, “A peptide antagonist of Prep1-p160 interaction improves ceramide-induced insulin resistance in skeletal muscle cells” (Oncotarget, 2017).

Tests used:
Assay type in all cases: cell-based, rat
[1] = test system: Prep1 and p160 protein levels in L6 cells; assay: Western blot of Prep1 and p160 protein levels in L6 cells; conditions: for increase of Prep1 and p160 protein levels: 18h
Description: Figure 1 Effect of ceramides dose-response and time-course on Prep1 and p160 protein levels L6 skeletal muscle cells were treated with different concentration of C2cer (10μM and 100μM for 18h) (A) and for different time (10μM for 6h and 18h) (B). Protein lysates were analyzed by Western blot using antibodies for Prep1, p160 and for the beta-actin, as a loading control. Blots were detected by ECL and autoradiography. The autoradiographs are representative of four independent experiments. Asterisks denote statistically significant differences (*p<0.05; **p<0.01).
Figure 2 Effect of ceramides on Prep1 and p160 mRNA expression and of Prep1-p160 coprecipitation L6 cells were treated with C2cer (10μM) for 18h and Prep1 (A) or p160 (B) mRNA levels were analyzed by real-time RT-PCR analysis. Data were normalized by the amount of GAPDH mRNA, used as internal control. Bars represent the mean ± SD of three independent experiments, each performed in triplicate. (C) L6 cells were treated with cycloheximide (CHX) at 40μg/mL concentration for 18h and the lysates were analyzed by Western blot with anti-p160 and beta-actin. The autoradiograph shown is representative of three different experiments and subjected to densitometric analysis. (D) Protein lysates from L6 cells treated with C2cer as indicated, were immunoprecipitated with Prep1 antibody and immunoblotted with p160 or Prep1 antibodies. The autoradiograph shown is representative of three different experiments and subjected to densitometric analysis. Asterisks denote statistically significant differences (*p<0.05; **p<0.01).
Figure 3 Design and in vitro effects of Prep1(54-72) peptide on Prep1/p160 association (A) Binding curves of Prep1(59-72) and Prep1(54-72) peptides to p160_20-160 by ELISA-like assays. Biotinylated peptides at several concentrations were added in triplicate to a 96-well plate coated with p160_20-160 (0.1μM). Experiments were performed at least twice and the average results fitted using GraphPad Prism. […] (B) Competition binding experiments. His6-tagged-p160_20-160 at 0.25μM was incubated with Prep1(59-72) and Prep1(54-72) at concentrations ranging between 0.001÷10μM and added to a 96-well plate coated with Prep1_45-155 (0.10μM). Results are the average of three independent experiments. (C) L6 cells were incubated with increasing concentrations of the fluorescein-conjugated peptide (FITC-Prep1(54-72)) and peptide uptake was detected by FACS analysis of fluorescein-labeled cells. Bars represent the mean ± SD of four independent experiments. (D) L6 muscle cells incubated with Prep1(54-72) were stimulated with C2cer (10μM) for 18h. Protein lysates were immunoprecipitated with Prep1 antibodies and analyzed by Western blot using antibodies for p160 or for Prep1. (E) An aliquot of the lysate was used to measure protein expression of Prep1 and p160 and the beta-actin used as loading control. The blots were detected by ECL and autoradiography. The autoradiograph is representative of three independent experiments. Asterisks denote statistically significant differences (*p<0.05; **p<0.01).
L6 rat skeletal muscle cells (ATCC, Manassas, VA, USA) were cultured in DMEM supplemented with 10% FBS and 1% penicillin/streptomycin solution at 37°C in a humidified 95% air and 5% CO2 atmosphere (all vol./vol.). […]
Total cell lysates were obtained and separated by SDS-PAGE. […] The protein concentrations in the cell lysates were measured using a Bio-Rad DC (detergent compatible) assay. […]

[2] = test system: IR tyrosine phosphorylation; assay: IR tyrosine phosphorylation, immunoprecipitation and Western blot; conditions: insulin 100nM; for effect on insulin-stimulated IR tyrosine phosphorylation: L6 cells, C2cer 10μM 18h, with or without Prep1(54-72)
Description: Figure 4 Prep1(54-72) peptide restores the insulin signaling inhibited by C2cer and Prep1 L6 cells were stimulated with insulin (100nM) and incubated with Prep1(54-72) in presence of C2cer at 10μM for 18h (A-B) or stable transfection of Prep1 (C-D). Protein lysates were immunoprecipitated with specific IR or IRS1 antibodies and analyzed by Western blot using antibodies for phosphotyrosines (pY) and beta-actin as loading control. Blots were detected by ECL and autoradiography. The autoradiographs are representative of three independent experiments. Asterisks denote statistically significant differences (*p<0.05; **p<0.01).
(§1) Total cell lysates were obtained and separated by SDS-PAGE. Briefly, cells were solubilized with lysis buffer containing 50mM HEPES, 150mM NaCl, 10mM EDTA, 10mM Na4P2O7, 2mM sodium orthovanadate, 50mM NaF, 1mM phenylmethylsulfonyl fluoride, 10μg/ml aprotinin, 10μg/ml leupeptin, pH 7.4, and 1% (v/v) Triton X-100. Lysates were clarified by centrifugation at 12,000g for 20 minutes at 4°C. The protein concentrations in the cell lysates were measured using a Bio-Rad DC (detergent compatible) assay. Immunoprecipitation and Western blot analysis have been performed as previously described.

L6 cells = assay: 2-DG uptake in L6 cells; conditions: for effect on insulin-stimulated glucose uptake (2-DG): insulin 100nM, C2cer 10μM, with or without Prep1(54-72)
Description: Figure 6 Effect of Prep1(54-72) peptide on glycogen content and 2-DG uptake L6 control and Prep1 overexpressing cells were stimulated with Insulin (100nM) and/or C2cer (10μM) and incubated with Prep1(54-72). (A) Glycogen content and (B) 2-DG uptake were measured as described in methods. Bars represent the mean ± SD of three independent experiments. Asterisks denote statistically significant differences (*p<0.05; **p<0.01; ***p<0.001).
Glycogen was isolated from L6 cells homogenized in 0.1% SDS, saturated with Na2SO4 for 30 minutes at 37°C, followed by ethanol (EtOH) precipitation. Glycogen content was determined as previously described. 2-DG uptake by the L6 cells was measured as previously reported.

Akt phosphorylation = assay: Akt phosphorylation, Western blot; conditions: L6 cells with C2cer 10μM or Prep1 transfection, insulin 100nM
Description: Figure 5 Effect of Prep1(54-72) peptide on Akt phosphorylation and PGC-1α and GLUT4 protein levels (A-B) L6 control and Prep1 overexpressing cells were stimulated with Insulin (100nM) and/or C2cer (10μM) and incubated with Prep1(54-72). Protein lysates were analyzed by Western blot using antibodies for pAkt, Akt and for the beta-actin, as a loading control. (C) PGC-1α and GLUT4 protein levels were measured by using specific antibodies for these proteins and beta-actin antibody was used as loading control. Blots were detected by ECL and autoradiography. The autoradiographs are representative of four independent experiments. Asterisks denote statistically significant differences (*p<0.05; **p<0.01; ***p<0.001).
as §1

[3] = C2cer 10μM 18h, incubated with Prep1(54-72)

Molecule	increase of Prep1 and p160 protein levels ([1]; C2cer 10μM)	increase of Prep1 and p160 protein levels ([1]; C2cer 100μM)	effect on insulin-stimulated IR tyrosine phosphorylation [2]	reduction of insulin-stimulated glucose uptake (L6 cells; C2cer exposure (abstract))	effect on insulin-stimulated glucose uptake (2-DG) (L6 cells)	decrease of ceramide-induced p160 levels [1, 3]	effect on ceramide-induced Prep1 levels [1, 3]	IR tyrosine phosphorylation in Prep1 overexpressing cells ([2]; Prep1L6 cells (stably transfected with Prep1 cDNA), incubated with Prep1(54-72))	effect on insulin stimulated Akt phosphorylation (Akt phosphorylation)
CCCCCCCCCCCCC/C=C/[C@@H](O)[C@H](CO)NC(C)=O [C2cer, D-erythro-Sphingosine, N-Acetyl-, reference compound]	50%	90%	blocked	2.1 fold	negatively modulated	–	–	–	–
Ac-KQAIYRHPLFPLLALLFEK-NH2 [Prep1(54-72)]	–	–	restored	–	recovered the insulin response	25%	did not modify	stimulated similarly to the control cells	rescued insulin effect
